# Starred links: 1 amine or outer side, 2 acyl side, 3 side chain; linkers in the order of their positions; H or OH if unused. Non-standard residues stand in square brackets, D forms with d. Residues, ends and D or L forms follow the SMILES beside them. *: point of attachment. Bpa = N[C@@H](Cc1ccc(C(=O)c2ccccc2)cc1)C(=O)O; Ala(thiazol-5-yl) = N[C@@H](Cc1cncs1)C(=O)O; β3hPhg = O=C(C[C@@H](N[*:1])c1ccccc1)[*:2]; Bip = N[C@@H](Cc1ccc(-c2ccccc2)cc1)C(=O)O; GABA(4S-Me) = C[C@@H](CCC(=O)[*:2])N[*:1]; 1Nal = N[C@@H](Cc1cccc2ccccc12)C(=O)O; 2Nal = N[C@@H](Cc1ccc2ccccc2c1)C(=O)O; Tic = O=C(O)[C@@H]1Cc2ccccc2CN1; Cha = N[C@@H](CC1CCCCC1)C(=O)O; Tle = CC(C)(C)[C@H](N)C(=O)O; Pip = O=C(O)[C@@H]1CCCCN1; Nle = CCCC[C@H](N)C(=O)O; Orn = NCCC[C@H](N)C(=O)O; Ac5c = NC1(C(=O)O)CCCC1; Dab = NCC[C@H](N)C(=O)O; Ac3c = NC1(C(=O)O)CC1; Bn = c1ccc(C*)cc1
# Target: T1, Apelin receptor (Homo sapiens, UniProt P35414)
# T1 sequence (P35414 whole entry): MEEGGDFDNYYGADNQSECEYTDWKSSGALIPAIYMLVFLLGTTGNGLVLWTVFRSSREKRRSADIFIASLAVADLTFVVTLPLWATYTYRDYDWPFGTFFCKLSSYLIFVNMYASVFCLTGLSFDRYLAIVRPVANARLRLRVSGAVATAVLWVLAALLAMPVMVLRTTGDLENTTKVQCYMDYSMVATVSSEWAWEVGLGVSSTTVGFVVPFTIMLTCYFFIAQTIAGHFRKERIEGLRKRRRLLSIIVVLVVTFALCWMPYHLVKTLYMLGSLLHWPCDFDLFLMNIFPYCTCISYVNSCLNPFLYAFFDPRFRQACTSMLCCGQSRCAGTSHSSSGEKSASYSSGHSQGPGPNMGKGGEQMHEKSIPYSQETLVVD
# Assay: Displacement of [125I] [NIe75, Tyr77]Pyr-apelin-13 from YFP-tagged human APJ receptor expressed in HEK293 cell membranes incubated for 1 hr by gamma counting based Cheng-Prusoff equation analysis
row,Molecule,Ki [nM]
1,CCCC[C@H](N)C(=O)N1CCC[C@H]1C(=O)N[C@@H](Cc1ccccc1)C(=O)N[C@@H](Cc1cnc[nH]1)C(=O)N[C@@H](CO)C(=O)N[C@@H](CCCNC(=N)N)C(=O)N[C@H](C(=O)N1CCC[C@H]1C(=O)N[C@@H](Cc1ccccc1)C(=O)N1CCC[C@H]1C(=O)O)C(C)C (H-[Nle]PFHSRVPFP-OH),212
2,CCCC[C@H](N)C(=O)N1CCC[C@H]1C(=O)N[C@@H](CC(C)C)C(=O)N[C@@H](Cc1cnc[nH]1)C(=O)N[C@@H](CO)C(=O)N[C@@H](CCCNC(=N)N)C(=O)N[C@H](C(=O)N1CCC[C@H]1C(=O)N[C@@H](C)C(=O)N1CCC[C@H]1C(=O)O)C(C)C (H-[Nle]PLHSRVPAP-OH),> 10000
3,CCCC[C@H](N)C(=O)N1CCC[C@H]1C(=O)N[C@@H](CC(C)C)C(=O)N[C@@H](Cc1cnc[nH]1)C(=O)N[C@@H](CO)C(=O)N[C@@H](CCCNC(=N)N)C(=O)NC1(C(=O)N2CCC[C@H]2C(=O)N[C@@H](Cc2ccccc2)C(=O)N2CCC[C@H]2C(=O)O)CCCC1 (H-[Nle]PLHSR[Ac5c]PFP-OH),> 10000
4,CCCC[C@H](N)C(=O)N1CCC[C@H]1C(=O)N[C@@H](CC(C)C)C(=O)N[C@@H](Cc1cnc[nH]1)C(=O)N[C@@H](CO)C(=O)N[C@@H](CCCNC(=N)N)C(=O)N[C@H](C(=O)N1CCC[C@H]1C(=O)N[C@@H](Cc1ccccc1)C(=O)N1C[C@H](O)C[C@H]1C(=O)O)C(C)C,76
5,CCCC[C@H](N)C(=O)N1CCC[C@H]1C(=O)N[C@@H](CC(C)C)C(=O)N[C@@H](Cc1ccc2ccccc2c1)C(=O)N[C@@H](CO)C(=O)N[C@@H](CCCNC(=N)N)C(=O)N[C@H](C(=O)N1CCC[C@H]1C(=O)N[C@@H](Cc1ccccc1)C(=O)N1CCC[C@H]1C(=O)O)C(C)C (H-[Nle]PL[2Nal]SRVPFP-OH),> 10000
6,CCCC[C@H](N)C(=O)N1CCC[C@H]1C(=O)N[C@@H](CC(C)C)C(=O)N[C@@H](Cc1cccc2ccccc12)C(=O)N[C@@H](CO)C(=O)N[C@@H](CCCNC(=N)N)C(=O)N[C@H](C(=O)N1CCC[C@H]1C(=O)N[C@@H](Cc1ccccc1)C(=O)N1CCC[C@H]1C(=O)O)C(C)C (H-[Nle]PL[1Nal]SRVPFP-OH),> 10000
7,CCCC[C@H](N)C(=O)N1CCC[C@H]1C(=O)N[C@@H](CC(C)C)C(=O)N[C@@H](Cc1ccccc1)C(=O)N[C@@H](CO)C(=O)N[C@@H](CCCNC(=N)N)C(=O)N[C@H](C(=O)N1CCC[C@H]1C(=O)N[C@@H](Cc1ccccc1)C(=O)N1CCC[C@H]1C(=O)O)C(C)C (H-[Nle]PLFSRVPFP-OH),> 10000
8,CCCC[C@H](N)C(=O)N1CCC[C@H]1C(=O)N[C@@H](CC(C)C)C(=O)N[C@@H](Cc1cnc[nH]1)C(=O)N[C@@H](CO)C(=O)N[C@@H](CCCNC(=N)N)C(=O)N[C@@H](C)C(=O)N1CCC[C@H]1C(=O)N[C@@H](Cc1ccccc1)C(=O)N1CCC[C@H]1C(=O)O (H-[Nle]PLHSRAPFP-OH),419
9,CCCC[C@H](N)C(=O)N1CCC[C@H]1C(=O)N[C@@H](CC(C)C)C(=O)N[C@@H](Cc1cnc[nH]1)C(=O)N[C@@H](CO)C(=O)N[C@@H](CCCNC(=N)N)C(=O)N[C@H](C(=O)N1CCC[C@H]1C(=O)N[C@@H](Cc1ccc(C(=O)c2ccccc2)cc1)C(=O)N1CCC[C@H]1C(=O)O)C(C)C (H-[Nle]PLHSRVP[Bpa]P-OH),> 10000
10,CCCC[C@H](N)C(=O)N1CCC[C@H]1C(=O)N[C@@H](CC(C)C)C(=O)N[C@@H](Cc1cnc[nH]1)C(=O)N[C@@H](CO)C(=O)N[C@@H](CCCNC(=N)N)C(=O)N[C@H](C(=O)N1CCC[C@H]1C(=O)N[C@@H](C)CCC(=O)O)C(C)C (H-[Nle]PLHSRVP-{GABA(4S-Me)}),> 10000
11,H-HSRVPFP-OH,> 10000
12,CCCC[C@H](N)C(=O)N1CCC[C@H]1C(=O)NC1(C(=O)N[C@@H](Cc2cnc[nH]2)C(=O)N[C@@H](CO)C(=O)N[C@@H](CCCNC(=N)N)C(=O)N[C@H](C(=O)N2CCC[C@H]2C(=O)N[C@@H](Cc2ccccc2)C(=O)N2CCC[C@H]2C(=O)O)C(C)C)CC1 (H-[Nle]P[Ac3c]HSRVPFP-OH),278
13,CCCC[C@H](N)C(=O)N1CCC[C@H]1C(=O)N[C@@H](CC(C)C)C(=O)N[C@@H](Cc1cnc[nH]1)C(=O)N[C@@H](CO)C(=O)N[C@@H](CCCNC(=N)N)C(=O)N[C@H](C(=O)N1CCCC[C@H]1C(=O)N[C@@H](Cc1ccccc1)C(=O)O)C(C)C (H-[Nle]PLHSRV[Pip]F-OH),186
14,CCCC[C@H](N)C(=O)N1CCC[C@H]1C(=O)N[C@@H](CC(C)C)C(=O)N[C@@H](Cc1cnc[nH]1)C(=O)N[C@@H](CO)C(=O)N[C@@H](CCCNC(=N)N)C(=O)N[C@H](C(=O)NC1(C(=O)N[C@@H](Cc2ccccc2)C(=O)O)CC1)C(C)C (H-[Nle]PLHSRV[Ac3c]F-OH),> 10000
15,CCCC[C@H](N)C(=O)N1CCC[C@H]1C(=O)N[C@@H](CC(C)C)C(=O)N[C@@H](Cc1cnc[nH]1)C(=O)N[C@@H](CO)C(=O)N[C@@H](CCCNC(=N)N)C(=O)N[C@H](C(=O)N1CCC[C@H]1C(=O)N[C@@H](Cc1ccc(C(=O)c2ccccc2)cc1)C(=O)O)C(C)C (H-[Nle]PLHSRVP[Bpa]-OH),48
16,CCCC[C@H](N)C(=O)N1CCC[C@H]1C(=O)N[C@@H](CC(C)C)C(=O)N[C@@H](Cc1c[nH]c2ccccc12)C(=O)N[C@@H](CO)C(=O)N[C@@H](CCCNC(=N)N)C(=O)N[C@H](C(=O)N1CCC[C@H]1C(=O)N[C@@H](Cc1ccccc1)C(=O)N1CCC[C@H]1C(=O)O)C(C)C (H-[Nle]PLWSRVPFP-OH),62
17,CCCC[C@H](N)C(=O)N1CCC[C@H]1C(=O)N[C@@H](CC(C)C)C(=O)N[C@@H](Cc1cnc[nH]1)C(=O)N[C@@H](CO)C(=O)N[C@@H](CCCNC(=N)N)C(=O)N[C@H](C(=O)N1CCC[C@H]1C(=O)N[C@H](CC(=O)O)c1ccccc1)C(C)C (H-[Nle]PLHSRVP-β3hPhg),228
18,CCCC[C@H](N)C(=O)N1CCC[C@H]1C(=O)N[C@@H](CC(C)C)C(=O)N[C@@H](CC1CCCCC1)C(=O)N[C@@H](CO)C(=O)N[C@@H](CCCNC(=N)N)C(=O)N[C@H](C(=O)N1CCC[C@H]1C(=O)N[C@@H](Cc1ccccc1)C(=O)N1CCC[C@H]1C(=O)O)C(C)C (H-[Nle]PL[Cha]SRVPFP-OH),474
19,CCCC[C@H](N)C(=O)N1CCC[C@H]1C(=O)N[C@@H](CC(C)C)C(=O)N[C@@H](Cc1cnc[nH]1)C(=O)N[C@@H](CO)C(=O)N[C@@H](CCCNC(=N)N)C(=O)NC1(C(=O)N2CCC[C@H]2C(=O)N[C@@H](Cc2ccccc2)C(=O)N2CCC[C@H]2C(=O)O)CC1 (H-[Nle]PLHSR[Ac3c]PFP-OH),> 10000
20,CCCC[C@H](N)C(=O)N1CCC[C@H]1C(=O)N[C@@H](CC(C)C)C(=O)N[C@@H](Cc1cnc[nH]1)C(=O)N[C@@H](CO)C(=O)N[C@@H](CCCNC(=N)N)C(=O)N[C@@H](CCC)C(=O)N1CCC[C@H]1C(=O)N[C@@H](Cc1ccccc1)C(=O)N1CCC[C@H]1C(=O)O,69
21,CCCC[C@H](N)C(=O)N1CCC[C@H]1C(=O)N[C@@H](CC(C)C)C(=O)N[C@@H](C)C(=O)N[C@@H](CO)C(=O)N[C@@H](CCCNC(=N)N)C(=O)N[C@H](C(=O)N1CCC[C@H]1C(=O)N[C@@H](Cc1ccccc1)C(=O)N1CCC[C@H]1C(=O)O)C(C)C (H-[Nle]PLASRVPFP-OH),1460
22,CCCC[C@H](N)C(=O)N1CCC[C@H]1C(=O)N[C@@H](CC(C)C)C(=O)N[C@@H](Cc1cnc[nH]1)C(=O)N[C@@H](CO)C(=O)N[C@@H](CCCNC(=N)N)C(=O)N[C@H](C(=O)N1CCC[C@H]1C(=O)N[C@@H](Cc1ccc(-c2ccccc2)cc1)C(=O)N1CCC[C@H]1C(=O)O)C(C)C (H-[Nle]PLHSRVP[Bip]P-OH),> 10000
23,CCCC[C@H](N)C(=O)N1CCC[C@H]1C(=O)N[C@@H](CC(C)C)C(=O)N[C@@H](CCN)C(=O)N[C@@H](CO)C(=O)N[C@@H](CCCNC(=N)N)C(=O)N[C@H](C(=O)N1CCC[C@H]1C(=O)N[C@@H](Cc1ccccc1)C(=O)N1CCC[C@H]1C(=O)O)C(C)C (H-[Nle]PL[Dab]SRVPFP-OH),> 10000
24,CCCC[C@H](N)C(=O)N1CCC[C@H]1C(=O)N[C@@H](CC(C)C)C(=O)N[C@@H](Cc1cnc[nH]1)C(=O)N[C@@H](CO)C(=O)N[C@@H](CCCNC(=N)N)C(=O)N[C@H](C(=O)N1CCC[C@H]1C(=O)N[C@@H](Cc1ccc(OCc2ccccc2)cc1)C(=O)O)C(C)C (H-[Nle]PLHSRVPY(Bn)-OH),92
25,CCCC[C@H](N)C(=O)N1CCC[C@H]1C(=O)N[C@@H](CC(C)C)C(=O)N[C@@H](Cc1cnc[nH]1)C(=O)N[C@@H](CO)C(=O)N[C@@H](CCCNC(=N)N)C(=O)N[C@H](C(=O)N1CCC[C@H]1C(=O)N[C@@H](Cc1ccccc1)C(=O)N1CCC[C@H]1C(=O)O)C(C)(C)C (H-[Nle]PLHSR[Tle]PFP-OH),174
26,CCCC[C@H](N)C(=O)N1CCC[C@H]1C(=O)N[C@@H](CC(C)C)C(=O)N[C@@H](Cc1cncs1)C(=O)N[C@@H](CO)C(=O)N[C@@H](CCCNC(=N)N)C(=O)N[C@H](C(=O)N1CCC[C@H]1C(=O)N[C@@H](Cc1ccccc1)C(=O)N1CCC[C@H]1C(=O)O)C(C)C (H-[Nle]PL[Ala(thiazol-5-yl)]SRVPFP-OH),71
27,CCCC[C@H](N)C(=O)N1CCC[C@H]1C(=O)N(C)[C@@H](CC(C)C)C(=O)N[C@@H](Cc1cnc[nH]1)C(=O)N[C@@H](CO)C(=O)N[C@@H](CCCNC(=N)N)C(=O)N[C@H](C(=O)N1CCC[C@H]1C(=O)N[C@@H](Cc1ccccc1)C(=O)N1CCC[C@H]1C(=O)O)C(C)C,120
28,CCCC[C@H](N)C(=O)N1CCC[C@H]1C(=O)N[C@@H](CC(C)C)C(=O)N[C@@H](CCCN)C(=O)N[C@@H](CO)C(=O)N[C@@H](CCCNC(=N)N)C(=O)N[C@H](C(=O)N1CCC[C@H]1C(=O)N[C@@H](Cc1ccccc1)C(=O)N1CCC[C@H]1C(=O)O)C(C)C (H-[Nle]PL[Orn]SRVPFP-OH),> 10000
29,CCCC[C@H](N)C(=O)N1CCC[C@H]1C(=O)N[C@@H](CC(C)C)C(=O)N[C@@H](Cc1cnc[nH]1)C(=O)N[C@@H](CO)C(=O)N[C@@H](CCCNC(=N)N)C(=O)N[C@H](C(=O)N1CCC[C@H]1C(=O)N[C@@H](Cc1ccccc1)C(=O)N1Cc2ccccc2C[C@H]1C(=O)O)C(C)C (H-[Nle]PLHSRVPF[Tic]-OH),29

# Source: ChEMBL document CHEMBL4765470 (J Med Chem, 2021)
